pIC50: −log10 of the molar value.

What all share (format): cell-based
For assay [1], the target named is T1, human NLRP3 (Homo sapiens, UniProt Q96P20). The assay is described as follows: Human Whole Blood (hWB) NLRP3 Assay (IL-1β MSD). The following applies: LPS 1 μg/ml 4.5 h, ATP 30 min, class symbols. As for the experimental part: Human whole blood was drawn from healthy volunteers after obtaining written informed consent. Heparin lithium coated tubes were used to collect blood from volunteers. Blood samples were distributed on 96 well plates using 90 μl per well. Priming was performed by adding 5 μl of LPS (O26:B6; Sigma L-2654) at a final concentration of 1 μg/ml for 4.5 hours in a humidified incubator with 37° C., 5% CO2. Thirty minutes prior to NLRP3 activation, 5 μl of a 20× compound solution or vehicle (2% DMSO) was added to each well and plates were incubated on a shaker (450 rpm) in a humidified incubator with 37° C., 5% CO2. Activation was then performed by adding 3.3 μl of a 31× ATP solution per well. At the end of the 30 minutes stimulation, the plates were centrifuged (800 g, 10 min, room temperature) and the plasma from each well was frozen at −80° C. IL-1β levels in the supernatant were analyzed using a mesoscale discovery assay (MSD K151TUK) according to the manufacturers' instructions.
T1 sequence (Q96P20 whole entry): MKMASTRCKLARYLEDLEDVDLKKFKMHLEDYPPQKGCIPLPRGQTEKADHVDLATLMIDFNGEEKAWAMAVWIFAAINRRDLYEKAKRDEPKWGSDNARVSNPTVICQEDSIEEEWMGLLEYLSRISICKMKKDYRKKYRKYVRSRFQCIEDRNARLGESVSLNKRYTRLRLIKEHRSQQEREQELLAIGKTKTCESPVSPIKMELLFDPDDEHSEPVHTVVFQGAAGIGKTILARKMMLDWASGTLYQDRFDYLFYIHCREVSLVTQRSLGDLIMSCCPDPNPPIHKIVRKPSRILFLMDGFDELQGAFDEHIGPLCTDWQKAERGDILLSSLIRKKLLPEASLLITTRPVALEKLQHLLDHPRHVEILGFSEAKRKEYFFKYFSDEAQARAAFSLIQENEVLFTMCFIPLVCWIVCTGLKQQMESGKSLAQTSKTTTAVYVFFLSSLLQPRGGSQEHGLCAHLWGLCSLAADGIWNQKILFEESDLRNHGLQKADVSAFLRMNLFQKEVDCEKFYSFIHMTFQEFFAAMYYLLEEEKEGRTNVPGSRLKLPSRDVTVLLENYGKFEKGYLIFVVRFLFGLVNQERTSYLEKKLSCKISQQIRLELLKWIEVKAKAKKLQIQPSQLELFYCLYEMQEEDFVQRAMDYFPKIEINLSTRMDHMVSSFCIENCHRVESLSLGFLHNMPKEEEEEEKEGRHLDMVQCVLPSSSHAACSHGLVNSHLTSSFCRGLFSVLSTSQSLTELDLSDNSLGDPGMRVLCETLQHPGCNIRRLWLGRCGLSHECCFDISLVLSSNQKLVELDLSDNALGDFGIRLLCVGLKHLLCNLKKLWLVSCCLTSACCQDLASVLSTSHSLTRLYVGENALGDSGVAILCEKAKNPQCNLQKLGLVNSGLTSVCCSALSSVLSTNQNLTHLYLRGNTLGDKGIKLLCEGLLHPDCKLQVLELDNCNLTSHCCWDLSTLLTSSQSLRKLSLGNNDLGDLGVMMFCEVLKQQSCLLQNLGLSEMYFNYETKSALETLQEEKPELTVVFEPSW
hWB IL-1β Assay: A represents an IC50 value <0.3 μM; B represents an IC50 value ≥0.3 μM and <0.5 μM; C represents an IC50 value ≥0.5 μM and <1.0 μM; D represents an IC50 value >1.0 μM.

Assay [2] has as its target T1, human NLRP3. Put plainly: Human PBMC NLRP3 Assay (IL-1β release). The following applies: human PBMCs. On the set-up: Human PBMCs (Normal): iXCells Cat #10HU-003; host or cells: human PBMCs (normal donors), LPS-primed, nigericin-stimulated. As for the experimental part:
Reagents: Human PBMCs (Normal): iXCells Cat #10HU-003; RPMI 1640 medium (ATCC modification): ThermoFisher Cat #A1049101 (Complete Media: 10% FBS, 1% Pen/Strep; Assay Media: 1% Pen/Strep; 75 cm^2 cell culture flask: Corning Cat #430641U; 96-well cell culture plates: VWR Cat #10062-900; LPS (E. coli 026:B6): Sigma Cat #L2654, stock 5 mg/mL in PBS; Nigericin sodium salt: Sigma Cat #N7143, stock 5 mg/mL (6.7 mM) in ethanol.
Cryopreserved PBMCs (10×10^6 cells/vial) were rapidly thawed in a 37° C. water bath for 2 min and transferred in 10 mL Complete Media. Cells were then centrifuged at 1200 RPM for 5 min, resuspended in 40 mL of Complete Media, transferred in a 75 cm^2 cell culture flask and incubated overnight at 37° C. with 5% CO2. The next day, PBMCs were centrifuged, resuspended in 30 mL Assay Media (˜3.3×10^5 cells/mL) and distributed at 100 μL/well in a 96-well cell culture plate. 50 μl of Assay Media containing 300 ng/ml of LPS was then added to each well except for the untreated control wells (50 μl Assay Media without LPS). Cells were then primed with LPS for 4 h at 37° C. with 5% CO2. A concentration response curve (CRC) was prepared of 500× test compound in 100% dimethyl sulfoxide (DMSO). The CRC was then diluted 1:25 in Assay Media and then further diluted 1:5 in Assay Media resulting in a final 4× CRC in 0.8% DMSO/Assay Media. 50 μL/well of 4× test compound CRC or vehicle (0.8% DMSO/Assay Media) was then transferred into each well and subsequently incubated for 30 min at 37° C. with 5% CO2. Cells were stimulated by adding 4 μL of 500 μM Nigericin, for 1 h at 37° C. with 5% CO2 Plates were then centrifuged at 1200 RPM for 5 min and 100 μl of the media was transferred to a clean 96-well storage plate and stored at −80° C. until analyzed. Cytokine measurements were performed using the mesoscale platform. Compounds were added 30 minutes before priming the cells with LPS when TNFα was required to be quantified in the cytokine panel to confirm selectivity.
Human PBMC NLRP3 Assay: A represents an IC50 value <0.3 μM; B represents an IC50 value ≥0.3 μM and <0.5 μM; C represents an IC50 value ≥0.5 μM and <1.0 μM; D represents an IC50 value >1.0 μM and <10 μM; E represents an IC50 value >10 μM.

For the next assay, the target named is T2, mouse NLRP3 (Mus musculus, UniProt Q8R4B8).
T2 construct: Blood was drawn from female CD1 mice (9 to 10 weeks) by cardiac puncture; from tissue; host or cells: whole blood of female CD1 mice, LPS-primed, ATP-stimulated
T2 sequence (Q8R4B8 whole entry): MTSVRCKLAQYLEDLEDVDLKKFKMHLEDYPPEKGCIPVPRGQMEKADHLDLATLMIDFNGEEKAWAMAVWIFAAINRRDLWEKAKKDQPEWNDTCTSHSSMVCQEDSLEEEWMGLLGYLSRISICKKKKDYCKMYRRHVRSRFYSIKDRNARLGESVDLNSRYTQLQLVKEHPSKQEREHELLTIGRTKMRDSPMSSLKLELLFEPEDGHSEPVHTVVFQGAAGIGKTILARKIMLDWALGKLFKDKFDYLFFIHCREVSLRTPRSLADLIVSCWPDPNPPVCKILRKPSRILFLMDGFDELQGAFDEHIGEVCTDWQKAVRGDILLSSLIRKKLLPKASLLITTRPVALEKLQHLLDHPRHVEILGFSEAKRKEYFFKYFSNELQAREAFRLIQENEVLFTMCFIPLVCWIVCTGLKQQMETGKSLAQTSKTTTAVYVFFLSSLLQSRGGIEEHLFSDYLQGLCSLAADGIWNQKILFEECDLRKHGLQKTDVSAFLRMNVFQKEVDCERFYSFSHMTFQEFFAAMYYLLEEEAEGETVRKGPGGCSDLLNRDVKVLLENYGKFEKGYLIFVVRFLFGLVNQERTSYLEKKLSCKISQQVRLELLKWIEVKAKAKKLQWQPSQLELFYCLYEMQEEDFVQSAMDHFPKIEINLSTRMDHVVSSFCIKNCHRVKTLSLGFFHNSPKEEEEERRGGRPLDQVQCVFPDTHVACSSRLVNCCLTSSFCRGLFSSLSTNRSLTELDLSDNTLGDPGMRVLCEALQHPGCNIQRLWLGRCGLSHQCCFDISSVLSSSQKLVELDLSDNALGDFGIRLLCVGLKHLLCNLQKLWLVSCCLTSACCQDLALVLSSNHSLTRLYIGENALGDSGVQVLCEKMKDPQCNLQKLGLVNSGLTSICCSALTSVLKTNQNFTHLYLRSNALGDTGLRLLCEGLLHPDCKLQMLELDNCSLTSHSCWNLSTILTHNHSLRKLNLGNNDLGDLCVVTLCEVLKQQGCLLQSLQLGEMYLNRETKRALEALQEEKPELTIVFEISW
The assay is described as follows: Mouse Whole Blood (mWB) NLRP3 Assay (IL-1β MSD). The following applies: CD1 mouse whole blood, LPS 1 μg/mL 5 h, ATP 5 mM; class symbols. As for the experimental part:
Reagents: The following reagents were used: blood collection tubes (Heparin); U-bottom 96-well tissue culture (Falcon 353077); HBSS for LPS, ATP and compound dilutions (Gibco 24020-117); and LPS, E. coli serotype 026:B6 (Sigma L-2654).
Mouse IL-1b MSD assay: Blood was drawn from female CD1 mice (9 to 10 weeks) by cardiac puncture. Blood was plated (135 μL) per well in 96-well U-bottom plates. 7.5 μL of 20× LPS (20 μg/mL, final concentration of 1 μg/mL) was added and mixed by gentle pipetting, and the mixture was incubated in a TC incubator for five hours. 7.5 μL of 20× compound or vehicle per well was added and mixed by gentle pipetting. Compounds were diluted 1/50 in HBSS to prepare a 20× dilution curve in 2% DMSO. The mixture was incubated for 30 minutes in a TC incubator with shaking (450 rpm). 5 μl of 31× ATP (155 mM, final concentration of 5 mM) was added and mixed by gentle pipetting. The mixture was incubated in a TC incubator for 30 minutes with shaking (450 rpm). The plate was centrifuged for 10 minutes at 800×g and ˜70 μL of plasma was removed. Plasma was frozen if required. Mouse IL-1b was analyzed with IL-1b MSD assay (K152TUK). […]
mWB IL-1β Assay: A represents an IC50 value <0.3 μM; B represents an IC50 value ≥0.3 μM and <0.5 μM; C represents an IC50 value ≥0.5 μM and <1.0 μM; D represents an IC50 value ≥1.0 μM.

Where [3] appears, read: LPS priming 4 h, nigericin stimulation 1 h, class symbols.

As usually defined, the pIC50 is −log10 of the IC50, conventionally taken in molar units. A higher pIC50 goes with a small IC50. In the case of `CC1(C)C(=O)N(CC(=O)NC2(CCC(=O)O)CCOC2)c2ccc(Br)cc21` (racemic) [Rac-3, 3-(3-(2-(5-bromo-3,3-dimethyl-2-oxoindolin-1-yl)acetamido)tetrahydrofuran-3-yl)propanoic acid], the negative-log IC50 (pIC50) against human NLRP3 [1] was 6.00 to 6.30; at human NLRP3 [2] (setting [3]) it was more than 6.52. In the case of `C[C@H](NC(=O)CN1C(=O)C(C)(C)c2c(F)c(C(F)(F)F)cc(F)c21)[C@@H](C)CC(=O)O` (single isomer, unassigned) [67C*], on human NLRP3 [1], the pIC50 is less than 6.00. Still for that read-out and setting: the result for `C[C@H](CC(=O)O)[C@@H](C)NC(=O)CN1C(=O)C(C)(C)c2c(F)c(C(F)(F)F)cc(F)c21` (single isomer, unassigned) [67D*] reads 6.30 to 6.52.

Consider `C[C@@H](CC(=O)O)[C@@H](C)NC(=O)CN1C(=O)C(C)(C)c2c1ccc(C1CC1)c2F` (single isomer, unassigned) [Compound 58A*], for which the figures for the pIC50 on human NLRP3 [1] and on human NLRP3 [2] (setting [3]) were 6.00 to 6.30 and more than 6.52, respectively.

In turn, `CC1(C)C(=O)N(CC(=O)NCCCC(=O)O)c2ccc(Cl)cc21` [Compound 4, 4-(2-(5-chloro-3,3-dimethyl-2-oxoindolin-1-yl)acetamido)butanoic acid] had a negative-log IC50 (pIC50) against human NLRP3 [1] of less than 6.00. As for `CC1(C)C(=O)N(CC(=O)N[C@@H]2CCCN(c3nnn[nH]3)C2)c2ccc(Br)cc21` [Compound 11A, (R)-N-(1-(1H-tetrazol-5-yl)piperidin-3-yl)-2-(5-bromo-3,3-dimethyl-2-oxoindolin-1-yl)acetamide], the values for the negative-log IC50 (pIC50) on mouse NLRP3 and on human NLRP3 [1] were more than 6.52 and less than 6.00, respectively. Consider `CC1(C)C(=O)N(CC(=O)NCCCC(=O)O)c2ccc(Br)c(F)c21` [Compound 21, 4-(2-(5-bromo-4-fluoro-3,3-dimethyl-2-oxoindolin-1-yl)acetamido)butanoic acid], for which the pIC50 on human NLRP3 [1] and against human NLRP3 [2] (setting [3]) was more than 6.52 throughout. As to `CC1(C)C(=O)N(CC(=O)NCCCC(=O)O)c2ccc(I)cc21` [Compound 22, 4-(2-(5-iodo-3,3-dimethyl-2-oxoindolin-1-yl)acetamido)butanoic acid], the pIC50 at human NLRP3 [1] and against human NLRP3 [2] (setting [3]) was more than 6.52 in each case.

`CC1(C)C(=O)N(CC(=O)NCCCC(=O)O)c2c(F)cc(Br)cc21` [Compound 24, 4-(2-(5-bromo-7-fluoro-3,3-dimethyl-2-oxoindolin-1-yl)acetamido)butanoic acid]: the pIC50 against mouse NLRP3 was more than 6.52; against human NLRP3 [2] (setting [3]), more than 6.52; against human NLRP3 [2] (LPS priming, nigericin stimulation, numeric values of Tables C1-C4), 7.70. For the compound `C[C@H]1C[C@@H](NC(=O)CN2C(=O)C(C)(C)c3cc(Br)cc(O)c32)CN(c2nnn[nH]2)C1` [Compound 26, 2-(5-bromo-7-hydroxy-3,3-dimethyl-2-oxoindolin-1-yl)-N-((3R,5S)-5-methyl-1-(1H-tetrazol-5-yl)piperidin-3-yl)acetamide], the negative logarithm of the IC50 (pIC50) on mouse NLRP3 is 6.00 to 6.30.

As to `CC1(C)C(=O)N(CC(=O)NCCCC(=O)O)c2c(O)cc(I)cc21` [Compound 28, 4-(2-(7-hydroxy-5-iodo-3,3-dimethyl-2-oxoindolin-1-yl)acetamido)butanoic acid], the pIC50 against human NLRP3 [1] was less than 6.00; against human NLRP3 [2] (setting [3]), more than 6.52. `CC1(C)C(=O)N(CC(=O)NCCCc2nnn[nH]2)c2c(O)cc(C3CC3)cc21` [Compound 29, N-(3-(1H-tetrazol-5-yl)propyl)-2-(5-cyclopropyl-7-hydroxy-3,3-dimethyl-2-oxoindolin-1-yl)acetamide] gave a pIC50 against human NLRP3 [1] of less than 6.00.

On to `CN(CCCC(=O)O)C(=O)CN1C(=O)C(C)(C)c2cc(Br)cc(O)c21` [Compound 30, 4-(2-(5-bromo-7-hydroxy-3,3-dimethyl-2-oxoindolin-1-yl)-N-methylacetamido)butanoic acid], for which the figures for the negative logarithm of the IC50 (pIC50) against human NLRP3 [1] and against human NLRP3 [2] (setting [3]) were less than 6.00 and more than 6.52, respectively. `CC(C)(CCC(=O)O)NC(=O)CN1C(=O)C(C)(C)c2cc(Br)cc(O)c21` [Compound 31, 4-(2-(5-bromo-7-hydroxy-3,3-dimethyl-2-oxoindolin-1-yl)acetamido)-4-methylpentanoic acid]: the negative logarithm of the IC50 (pIC50) on human NLRP3 [1] is 6.00 to 6.30; against human NLRP3 [2] (setting [3]), more than 6.52. Turning to `CC(C)(CCc1nnn[nH]1)NC(=O)CN1C(=O)C(C)(C)c2cc(Br)cc(O)c21` [Compound 32, 2-(5-bromo-7-hydroxy-3,3-dimethyl-2-oxoindolin-1-yl)-N-(2-methyl-4-(1H-tetrazol-5-yl)butan-2-yl)acetamide], on human NLRP3 [1], the pIC50 is less than 6.00. As for `CC1(C)C(=O)N(CC(=O)NCCCc2nnn[nH]2)c2c(O)cc(Br)cc21` [Compound 33, N-(3-(1H-tetrazol-5-yl)propyl)-2-(5-bromo-7-hydroxy-3,3-dimethyl-2-oxoindolin-1-yl)acetamide], the figures for the pIC50 against human NLRP3 [1] and on human NLRP3 [2] (setting [3]) were less than 6.00 and more than 6.52, respectively. For the compound `CC1(C)C(=O)N(CC(=O)NCC2(CC(=O)O)CC2)c2c(O)cc(Br)cc21` [Compound 35, 2-(1-((2-(5-bromo-7-hydroxy-3,3-dimethyl-2-oxoindolin-1-yl)acetamido)methyl)cyclopropyl)acetic acid], the negative-log IC50 (pIC50) on human NLRP3 [1] was less than 6.00; against human NLRP3 [2] (setting [3]) it was more than 6.52. For `C[C@@H](CCC(=O)O)NC(=O)CN1C(=O)C(C)(C)c2cc(Br)cc(O)c21` [Compound 41B, (S)-4-(2-(5-bromo-7-hydroxy-3,3-dimethyl-2-oxoindolin-1-yl)acetamido)pentanoic acid] the same measures were less than 6.00 and more than 6.52. On human NLRP3 [1], `CC1(C)C(=O)N(CC(=O)NCCCC(=O)O)c2c(O)cc(Cl)cc21` [Compound 47, 4-(2-(5-chloro-7-hydroxy-3,3-dimethyl-2-oxoindolin-1-yl)acetamido)butanoic acid] had a pIC50 of 6.30 to 6.52. For `C[C@H](CNC(=O)CN1C(=O)C(C)(C)c2c(F)c(C3CC3)cc(F)c21)CC(=O)O` [Compound 61B, (S)-4-(2-(5-cyclopropyl-4,7-difluoro-3,3-dimethyl-2-oxoindolin-1-yl)acetamido)-3-methylbutanoic acid], the pIC50 at human NLRP3 [1] was 6.00 to 6.30.
